According to patent US20250197403A1, “HETEROARYL COMPOUNDS FOR TREATMENT OF COMPLEMENT FACTOR D MEDIATED DISORDERS” (Achillion Pharmaceuticals, Inc., priority 2020, published 2025):

Target: Human Factor D (Homo sapiens (Human), UniProt P00746)
Test: Human Factor D Assay
Assay type: biochemical
Conditions: Human Factor D 80 nM, substrate Z-L-Lys-SBzl, assay according to Example 3
Procedure, shortened: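 Serum-purified factor D (80 nM final) preincubated with compound 5 min at room temperature in 50 mM Tris, 1M NaCl, pH 7.5. Z-L-Lys-SBzl substrate and DTNB added at 100 μM each; A405 read every 30 s for 30 min. IC50 from nonlinear regression of reaction rates versus compound concentration.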

Chain of Human Factor D (P00746 26-253): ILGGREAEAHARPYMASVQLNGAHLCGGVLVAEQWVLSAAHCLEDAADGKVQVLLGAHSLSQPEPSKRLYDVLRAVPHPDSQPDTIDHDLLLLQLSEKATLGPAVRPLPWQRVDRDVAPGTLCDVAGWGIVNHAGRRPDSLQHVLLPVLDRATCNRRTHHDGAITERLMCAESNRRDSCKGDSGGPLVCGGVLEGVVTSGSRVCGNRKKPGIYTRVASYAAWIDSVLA

SMILES | IC50
CC(=O)c1cn(CC(=O)N2C[C@@](F)(CF)CC2C(=O)Nc2nc(C(F)(F)F)ccc2C#N)c2c(C)nc(-c3cnc4cc(C)nn4c3)cc12 (stereo partly drawn) [Compound 33, (4R)-1-(2-(3-acetyl-7-methyl-5-(2-methylpyr-azolo[1,5-a]pyrimidin-6-yl)-1H-pyrrolo[2,3-c]pyr-idin-1-yl)acetyl)-N-(3-cyano-6-(trifluoromethyl)-pyridin-2-yl)-4-fluoro-4-(fluoromethyl)pyrrolidine-2-carboxamide] | < 1 µM
CC(=O)c1cn(CC(=O)N2[C@H](C(=O)Nc3nc(C(F)(F)F)cc(F)c3C)C[C@@]3(C)C[C@@H]23)c2c(C)cc(-c3ccc4nc(C)nn4c3)cc12 [Compound 58, (1R,3S,5R)-2-(2-(3-acetyl-7-methyl-5-(2-methyl-[1,2,4]triazolo[1,5-a]pyr-idin-6-yl)-1H-indol-1-yl)-acetyl)-N-(4-fluoro-3-methyl-6-(trifluorometh-yl)pyridin-2-yl)-5-methyl-2-azabicyclo[3.1.0]hexane-3-carboxamide] | < 1 µM
[2H]C([2H])([2H])OC([2H])([2H])c1ccc(C(F)(F)F)nc1NC(=O)[C@@H]1C[C@@]2(C)C[C@H]2N1C(=O)Cn1cc(C(C)=O)c2cc(-c3cnc4cc(C)nn4c3)cc(C)c21 [Compound 80, (1R,3S,5R)-2-(2-(3-acetyl-7-methyl-5-(2-methylpyr-azolo[1,5-a]pyrimidin-6-yl)-1H-indol-1-yl)acetyl)-N-(3-((methoxy-d3)meth-yl-d2)-6-(trifluoromethyl)-pyridin-2-yl)-5-methyl-2-azabicyclo[3.1.0]hexane-3-carboxamide] | < 1 µM
CC(=O)c1cn(CC(=O)N2[C@H](C(=O)Nc3nc(C(F)(F)F)cnc3C)C[C@@]3(C)C[C@@H]23)c2c(C)cc(-c3cnc4cc(C)nn4c3)cc12 [Compound 60, (1R,3S,5R)-2-(2-(3-acetyl-7-methyl-5-(2-methylpyr-azolo[1,5-a]pyrimidin-6-yl)-1H-indol-1-yl)acetyl)-5-methyl-N-(3-methyl-6-(trifluoromethyl)pyrazin-2-yl)-2-azabicyclo[3.1.0] hexane-3-carboxamide] | < 1 µM
[2H]C([2H])([2H])OCc1ccc(C(F)(F)F)nc1NC(=O)[C@@H]1C[C@@]2(C)C[C@H]2N1C(=O)Cn1cc(C(C)=O)c2cc(-c3ccc4nc(C)nn4c3)cc(C)c21 [Compound 81, (1R,3S,5R)-2-(2-(3-acetyl-7-methyl-5-(2-methyl-[1,2,4]triazolo[1,5-a]pyr-idin-6-yl)-1H-indol-1-yl)-acetyl)-N-(3-((methoxy-d3)methyl-d2)-6-(trifluoro-methyl)pyridin-2-yl)-5-methyl-2-azabicyclo[3.1.0] hexane-3-carboxamide] | < 1 µM
CC(=O)c1cn(CC(=O)N2C[C@H](F)C[C@H]2C(=O)N[C@@H](C)C(F)=C(C)C)c2c(C)cc(-c3cnc4cc(C)nn4c3)cc12 [Compound 37, (2S,4R)-1-(2-(3-acetyl-7-methyl-5-(2-methylpyr-azolo[1,5-a]pyrimidin-6-yl)-1H-indol-1-yl)acetyl)-4-fluoro-N-((S)-3-fluoro-4-methylpent-3-en-2-yl)pyr-rolidine-2-carboxamide] | < 1 µM
CC(=O)c1cn(CC(=O)N2[C@H](C(=O)Nc3nc(C(F)(F)F)ccc3C)C[C@@]3(C)C[C@@H]23)c2c(C)c(F)c(-c3cnc(C)nc3)cc12 [Compound 44, (1R,3S,5R)-2-(2-(3-acetyl-6-fluoro-7-methyl-5-(2-methylpyrimidin-5-yl)-1H-indol-1-yl)acetyl)-5-meth-yl-N-(3-methyl-6-(tri-fluoromethyl)pyridin-2-yl)-2-azabicyclo[3.1.0] hexane-3-carboxamide] | < 1 µM
CC(=O)c1nn(CC(=O)N2[C@H](C(=O)Nc3nc(Br)c(F)cc3C)C[C@@]3(C)C[C@@H]23)c2c(C)cc(-c3cnc([C@@H](C)O)nc3)cc12 [Compound 18, (1R,3S,5R)-2-(2-(3-acetyl-5-(2-((R)-1-hydroxyethyl)-pyrimidin-5-yl)-7-methyl-1H-indazol-1-yl)acetyl)-N-(6-bromo-5-fluoro-3-meth-ylpyridin-2-yl)-5-methyl-2-azabicyclo[3.1.0]hexane-3-carboxamide] | < 1 µM
CC(=O)c1cn(CC(=O)N2C[C@H]3C[C@H]3[C@H]2C(=O)N[C@H](C)C(F)=C(C)C)c2c(C)cc(-c3cnc4cc(C)nn4c3)cc12 [Compound 35, (1R,2S,5S)-3-(2-(3-acetyl-7-methyl-5-(2-methylpyr-azolo[1,5-a]pyrimidin-6-yl)-1H-indol-1-yl)acetyl)-N-((R)-3-fluoro-4-methyl-pent-3-en-2-yl)-3-azabi-cyclo[3.1.0]hexane-2-car-boxamide] | < 1 µM
COCc1ccc(C(F)(F)F)nc1NC(=O)[C@@H]1C[C@@]2(C)C[C@H]2N1C(=O)Cn1cc(C(C)=O)c2cc(-c3cnc4cc(C)nn4c3)cc(C)c21 [Compound 53, (1R,3S,5R)-2-(2-(3-acetyl-7-methyl-5-(2-methylpyr-azolo[1,5-a]pyrimidin-6-yl)-1H-indol-1-yl)acetyl)-N-(3-(methoxymethyl)-6-(trifluoromethyl)pyridin-2-yl)-5-methyl-2-azabicyclo [3.1.0]hexane-3-carbox-amide] | < 1 µM
CC(=O)c1cn(CC(=O)N2[C@H](C(=O)N[C@@H](C)C(F)=C(C)C)C[C@@]3(C)C[C@@H]23)c2c(C)cc(-c3cnc4cc(C)nn4c3)cc12 [Compound 30, (1R,3S,5R)-2-(2-(3-acetyl-7-methyl-5-(2-methylpyr-azolo[1,5-a]pyrimidin-6-yl)-1H-indol-1-yl)acetyl)-N-((S)-3-fluoro-4-methyl-pent-3-en-2-yl)-5-methyl-2-azabicyclo[3.1.0]hexane-3-carboxamide] | < 1 µM
CC(=O)c1nn(CC(=O)N2[C@H](C(=O)Nc3nc(Br)c(F)cc3C)C[C@@]3(C)C[C@@H]23)c2c(C)cc(-c3cnc([C@H](C)O)nc3)cc12 [Compound 17, (1R,3S,5R)-2-(2-(3-acetyl-5-(2-((S)-1-hydroxyethyl)-pyrimidin-5-yl)-7-methyl-1H-indazol-1-yl)acetyl)-N-(6-bromo-5-fluoro-3-meth-ylpyridin-2-yl)-5-methyl-2-azabicyclo[3.1.0]hexane-3-carboxamide] | < 1 µM
CC(=O)c1cn(CC(=O)N2C[C@H](F)C[C@H]2C(=O)Nc2ccn(CC(F)(F)F)n2)c2c(C)cc(-c3cnc4cc(C)nn4c3)cc12 [Compound 66, (2S,4R)-1-(2-(3-acetyl-7-methyl-5-(2-methylpyr-azolo[1,5-a]pyrimidin-6-yl)-1H-indol-1-yl)acetyl)-4-fluoro-N-(1-(2,2,2-tri-fluoroethyl)-1H-pyrazol-3-yl)pyrrolidine-2-carbox-amide] | < 1 µM
CC(=O)c1cn(CC(=O)N2[C@H](C(=O)N[C@H](C)C(F)=C(C)C)C[C@@]3(C)C[C@@H]23)c2c(C)nc(-c3cnc(C)nc3)cc12 [Compound 36, (1R,3S,5R)-2-(2-(3-acetyl-7-methyl-5-(2-methylpyr-imidin-5-yl)-1H-pyrrolo [2,3-c]pyridin-1-yl)acetyl)-N-((R)-3-fluoro-4-methyl-pent-3-en-2-yl)-5-methyl-2-azabicyclo[3.1.0]hexane-3-carboxamide] | < 1 µM
CC(=O)c1cn(CC(=O)N2[C@H](C(=O)N[C@H](C)C(F)=C(C)C)C[C@@]3(C)C[C@@H]23)c2c(C)cc(-c3cnc(C)nc3)cc12 [Compound 28, (1R,3S,5R)-2-(2-(3-acetyl-7-methyl-5-(2-methylpyr-imidin-5-yl)-1H-indol-1-yl)acetyl)-N-((R)-3-fluoro-4-methylpent-3-en-2-yl)-5-methyl-2-azabicyclo[3.1.0] hexane-3-carboxamide] | < 1 µM
COCc1ccc(C(F)(F)F)nc1NC(=O)[C@@H]1[C@@H]2C[C@@H]2CN1C(=O)Cn1cc(C(C)=O)c2cc(-c3ccc4nc(C)nn4c3)cc(C)c21 [Compound 4, (1R,2S,5S)-3-(2-(3-acetyl-7-methyl-5-(2-methyl-[1,2,4]triazolo[1,5-a]pyr-idin-6-yl)-1H-indol-1-yl)-acetyl)-N-(3-(methoxy-methyl)-6-(trifluorometh-yl)pyridin-2-yl)-3-aza-bicyclo[3.1.0]hexane-2-carboxamide] | < 1 µM
